Results taken from patent US6534041B1, “Acid-labile and enzymatically divisible dye compounds for diagnosis with near infrared light and for therapy” (Institute for Diagnostic Research GmbH of the Free …, priority 1997, dated 2003).

Key:
VIS/NIR absorption = format: physicochemical; conditions: H2O
[1] = in DMSO; according to Benson and Kues 1977; cited from earlier work

| Absorption λmax (VIS/NIR absorption) | Absorption coefficient ξ at λmax (VIS/NIR absorption; 748 nm) | Structure (SMILES) | Fluorescence quantum yield Q (standard) [1] |
| --- | --- | --- | --- |
| 748 nm | 14,800 1 mol^−1 cm^−1 | CC(=O)c1ccc2c(c1)C(C)(C)C(C=CC=CC=CC=C1N(CCCCS(=O)(=O)[O-])c3ccccc3C1(C)C)=[N+]2CCCCS(=O)(=O)[O-].[Na+] [compound 1, 5-(1-oxoethyl)-1,1′-(4-sulfobutyl)-indotricarbocyanine-sodium salt] |  |
|  |  | CC1(C)C(/C=C/C=C/C=C/C=C2\N(CCCCS(=O)(=O)O)c3ccc4ccccc4c3C2(C)C)=[N+](CCCCS(=O)(=O)[O-])c2ccc3ccccc3c21 [indocyanine green] | 13% |
